Patent US7147872B2, “Environmentally compatible processes compositions and materials treated thereby” (Pimi Marion Holdings, Ltd., priority 1998, dated 2006)

Tested on: potato seeds
Experiment: Dry fog treatment of potato seeds to prevent sprouting, H2O2 with Ag and Cu ion (Example 19)
Type: in vivo
Conditions: H2O2 500 PPM, Ag ion 0, Cu ion 0; 90% RH, 10° C.
From the text: The results were as follows:

## OO [H2O2, hydrogen peroxide]
  Sprouting (%) one month: 8%
  Sprouting (%) three months: 32%
  Sprouting (%) two months: 22%
